According to patent publication US11572344B2, “Cyanoaryl-aniline compounds for treatment of dermal disorders” (NFlection Therapeutics, Inc., priority 2018, dated 2023):

Tests used:
A375 cells = assay: A375 (BRAF) GI50 cell-based assay (Cell Titer-Glo); details: Homo sapiens, A-375, 72 hours, read-out: Assay 2: A375 (BRAF) GI50
Description: (§1) Alternatively, the following procedure can be used to measure cell-based activity. Test compounds were dissolved in DMSO in 10 mM stock. Cell Titer-Glo® 2.0 Luminescent cell viability assay reagent was purchased from Promega (Madison, Wis.). A375 and HCT116 cell lines were purchased from American Type Culture Collection (Manassas, Va.). For A375 cells, cell culture media was DMEM+10% FBS. For HCT116 cells, cell culture media was McCoy's 5A+10% FBS. All media were supplemented with 100 μg/mL of penicillin, and 100 μg/mL of streptomycin. Cultures were maintained at 37° C. in a humidified atmosphere of 5% CO2 and 95% air.
(§2) Test compounds were diluted in DMSO solution with 10-dose and 3-fold dilutions in a source plate starting at 10 mM. 25 nL of each test compound was delivered from the source plate to each well of the 384-well cell culture plates (T=Final) by Echo 550. 25 μL of culture medium containing 2000 of A375 or HCT116 cells was added to each of the wells in duplicates of the cell culture plates (T=0 and T=Final). 25 μL of Cell Titer Glo 2.0 reagent was added to each well of cell culture plate (T=0). The contents were mixed on an orbital shaker for 2 min and incubated at room temperature for 15 min to stabilize luminescent signal. Luminescence was recorded by Envision 2104 Multilabel Reader (PerkinElmer, Santa Clara, Calif.). The number of viable cells in culture was determined based on quantitation of the ATP present in each culture well. The cells in cell culture plate (T=Final) were incubated with the compounds at 37° C., 5% CO2 for 72 hours. 25 μL of Cell Titer Glo 2.0 reagent was added to each well. The contents were mixed on an orbital shaker for 2 min and incubated at room temperature for 15 min to stabilize luminescent signal. Luminescence was recorded by Envision 2104 Multilabel Reader (PerkinElmer, Santa Clara, Calif.). The number of viable cells in culture was determined based on quantitation of the ATP present in each culture well. The GI50 curves were plotted using the GraphPad Prism 4 program based on a sigmoidal dose-response equation Y=Bottom+(Top-Bottom)/(1+10^((Log EC50−X)*HillSlope)). All parameters in the equation were calculated by GraphPad Prism 4 program. […] Accordingly, GI50 is the value of 10^X, where X was calculated by the Curve Fitting Equation when Y=50 using Excel.
Assay 2 is the A375 (BRAF) GI50 (nM) cell-based assay as described in Example 41.

HCT116 cells = assay: HCT116 (Kras) GI50 cell-based assay (Cell Titer-Glo); details: Homo sapiens, HCT-116, 72 hours, read-out: Assay 3: HCT116 (Kras) GI50
Description: as §1, §2
Assay 3 is the HCT116 (Kras) GI50 (nM) assay as described in Example 41.

[1] = Liver S9 half-life stability assay; format: in vitro ADME; details: human, liver S9 fraction, pH 7.4; 1 μM test compound, 2 mg/mL liver protein, 1 mM NADPH; read-out: Assay 4: liver S9 half-life
Description: Compounds can be assessed for metabolic stability in human skin by assessing their rate of disappearance from human S9 skin fraction. Similarly, compounds can be assessed for metabolic stability in human liver by assessing their rate of disappearance from human S9 liver fraction. The protocol below is used to assess the difference between skin and hepatic metabolism.
The assay was carried out in 96-well microtiter plates at 37° C. Reaction mixtures (25 μL) contained a final concentration of 1 μM test compound, 2 mg/mL liver or skin protein, and 1 mM NADPH in buffer (100 mM potassium phosphate, pH 7.4 buffer with 1 mM EDTA, 3 mM MgCl2). At each of the time points (0, 15, 30, and 60 minutes), 150 μL of quench solution (100% acetonitrile with 0.1% formic acid) with internal standard was transferred to each well. Besides the zero minute controls, mixtures containing the same components except the NADPH were also prepared as the negative control. Verapamil or testosterone was included as a positive control to verify assay performance. Plates were sealed and centrifuged at 4° C. for 15 minutes at 4000 rpm. The supernatant was transferred to fresh plates for LC/MS/MS analysis.
All samples were analyzed on LC/MS/MS using an AB Sciex API 4000 instrument, coupled to a Shimadzu LC-20AD LC Pump system. Analytical samples were separated using a Waters Atlantis T3 dC18 reverse phase HPLC column (20 mm×2.1 mm) at a flow rate of 0.5 mL/min. The mobile phase consisted of 0.1% formic acid in water (solvent A) and 0.1% formic acid in 100% acetonitrile (solvent B).
The extent of metabolism was calculated as the disappearance of the test compound, compared to the 0-min control reaction incubations. Initial rates were calculated for the compound concentration and used to determine t1/2 values and subsequently, the intrinsic clearance, CLint=(0.693) (1/t1/2 (min)) (mL incubation/mg of S9 protein).
Assay 4 is the liver S9 half-life stability assay as described in Example 42. A4 indicates a half life of greater than 50 min and less than or equal to 200 min and B4 indicates a half life of less than or equal to 50 minutes.

MEK1 = MEK1 (Homo sapiens (Human), UniProt Q02750); assay: MEK Inhibition Assay-2 (Z′-LYTE biochemical assay); details: Z′-LYTE assay of Example 39; read-out: IC50 against MEK1
Description: MEK1 inhibitory activity of compounds were tested using the following procedure (protocol available at thermofisher.com/content/dam/LifeTech/migration/files/drug-discovery/pdfs.par.60256.file.dat/20130430%20ssbk %20customer %20protocol %20and %20assa y %20conditions.pdf). The Z′-LYTE biochemical assay (ThermoFisher) employs a fluorescence-based, coupled-enzyme format and is based on the differential sensitivity of phosphorylated and non-phosphorylated peptides to proteolytic cleavage.
Test compounds in 100% DMSO were screened in 1% DMSO (final) in the well. For 10 point titrations, 3-fold serial dilutions are conducted from the starting concentration of 30 μM.
After the 1 hour incubation, 5 μL of a 1:1024 dilution of Development Reagent A (available from Invitrogen, catalog no. PV3295) was added.
ATP solutions were diluted to a 4× working concentration in Kinase Buffer (50 mM HEPES pH 7.5, 0.01% BRIJ-35, 10 mM MgCl2, 1 mM EGTA). ATP Km apparent was previously determined using a Z′-LYTE assay. The Development Reagent was diluted in Development Buffer (available from Invitrogen, catalog no. P3127).
Assay Protocol: 2.5 μL of 4× test compound or 100 nL of 100× Test Compound plus 2.4 μL Kinase Buffer, 5 μL of the 2× Peptide/Kinase Mixture, 2.5 μL of 4×ATP Solution were added to the plates and placed on a shake plate for 30-seconds. The kinase reaction was allowed to proceed for 60-minute at room temperature, before 5 μL of Development Reagent Solution was added, and the mixture agitated for 30-seconds on a shake plate. The mixture was incubated for 60-minute at room temperature. Fluorescence was measured using a plate reader and the data were analyzed.
This control yielded 100% cleaved peptide in the Development Reaction. The 100% Phosphorylation Control, which consisted of a synthetically phosphorylated peptide of the same sequence as the peptide substrate, was designed to allow for the calculation of percent phosphorylation. This control yielded a very low percentage of cleaved peptide in the Development Reaction. The 0% Phosphorylation and 100% Phosphorylation Controls allow for the calculation of the percent phosphorylation achieved in a specific reaction well.
The minimum emission ratio in a screen was established by the 0% Inhibition Control, which contained active kinase. This control was designed to produce a 10-50% phosphorylated peptide in the Kinase Reaction. Cascade assays may produce up to 70% phosphorylated peptide.
A known inhibitor control standard curve, 10 point titration, was run for each individual kinase on the same plate as the kinase to ensure the kinase was inhibited within an expected IC50 range previously determined.
The following controls are prepared for each concentration of Test Compound assayed. […] The expected value for a non-interfering compound should be 100%. Any value outside of 90% to 110% was flagged. […] The expected value for a non-fluorescence compound should be 0%. Any value>20% was flagged.
The data in Table A was calculated. XLfit from IDBS was used. The dose response curve was curve fit to model number 205 (sigmoidal dose-response model).
Table 3 lists the MEK1 inhibition assay results of selected compounds according to the above procedure.

[2] = systemic MEK inhibitor; cited from earlier work

Chain of MEK1 (Q02750 whole entry): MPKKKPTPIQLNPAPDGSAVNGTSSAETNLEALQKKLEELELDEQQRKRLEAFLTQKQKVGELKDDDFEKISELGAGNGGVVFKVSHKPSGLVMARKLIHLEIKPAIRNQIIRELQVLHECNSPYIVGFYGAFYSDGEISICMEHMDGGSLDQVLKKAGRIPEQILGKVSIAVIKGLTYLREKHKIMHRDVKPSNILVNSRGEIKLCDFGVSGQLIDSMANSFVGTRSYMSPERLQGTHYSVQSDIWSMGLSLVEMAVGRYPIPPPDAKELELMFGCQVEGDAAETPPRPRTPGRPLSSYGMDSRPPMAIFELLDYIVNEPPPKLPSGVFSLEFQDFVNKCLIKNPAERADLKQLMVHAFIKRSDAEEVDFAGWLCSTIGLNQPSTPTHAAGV

| Structure (SMILES) | half-life at 1 μM [1] [min] | IC50 (MEK1) [nM] | also measured |
| --- | --- | --- | --- |
| CONC(=O)c1ccc(C#N)cc1Nc1ccc(I)cc1F [Compound 1.007] | ≤ 50 | – | GI50 (A375 cells): 500 to 1500 nM; GI50 (HCT116 cells): 750 to 2000 nM |
| CCONC(=O)c1ccc(C#N)cc1Nc1ccc(I)cc1F [Compound 1.008] | ≤ 50 | – | GI50 (A375 cells): 500 to 1500 nM; GI50 (HCT116 cells): 750 to 2000 nM |
| COC(=O)CCONC(=O)c1ccc(C#N)cc1Nc1ccc(I)cc1F [Compound 1.022, Methyl 3-((4-cyano-2-((2-fluoro-4-iodophenyl)amino)benzamido)oxy) propanoate] | – | > 1500 | – |
| CCCONC(=O)c1ccc(C#N)cc1Nc1ccc(I)cc1F [Compound 1.009] | ≤ 50 | – | – |
| N#Cc1ccc(C(=O)NO)c(Nc2ccc(I)cc2F)c1 [Compound 1.017, 4-Cyano-2-((2-fluoro-4-iodophenyl)amino)-N-hydroxybenzamide] | – | ≤ 150 | – |
| N#Cc1ccc(C(=O)NC2CC2)c(Nc2ccc(I)cc2F)c1 [Compound 1.005] | – | > 1500 | – |
| O=C(NOC[C@H](O)CO)c1ccc(F)c(F)c1Nc1ccc(I)cc1F [PD0325901] | – | – | side effects in clinical trials [2]: neurological side effects associated with ataxia, confusion, and syncope |
